{"source": "PubChem BioAssay AID380", "molecular_target": "Adenylate kinase 4, mitochondrial (Homo sapiens) (UniProt P27144)", "sequence (P27144 whole entry, looked up)": "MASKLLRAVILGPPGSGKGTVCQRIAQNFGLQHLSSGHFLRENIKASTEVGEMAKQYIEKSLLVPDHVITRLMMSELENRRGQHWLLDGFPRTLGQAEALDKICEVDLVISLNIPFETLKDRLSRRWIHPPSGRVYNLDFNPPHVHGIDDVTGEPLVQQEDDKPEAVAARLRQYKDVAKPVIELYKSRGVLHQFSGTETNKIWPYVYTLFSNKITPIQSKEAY", "experiment": "ligand-induced stabilization of human AK3 (AK4) – biophysical, DSF, SYPRO orange (AID 380)", "conditions": "recombinant protein, DSF SYPRO orange thermal shift; at 5 µM; protein 1 µM; buffer 10 mM HEPES; hits give high values", "data": [{"smiles": "Nc1ncnc2c1ncn2[C@@H]1O[C@H](COP(=O)(O)OP(=O)(O)OP(=O)(O)OP(=O)(O)OP(=O)(O)OC[C@H]2O[C@@H](n3cnc4c(N)ncnc43)[C@H](O)[C@@H]2O)[C@@H](O)[C@H]1O", "values": [{"measurement": "Tm shift", "result": 17.2, "unit": "Celsius"}]}]}
